Patent US20230219963A1, “PYRROLO[2,3-D]PYRIMIDINE DERIVATIVES” (Pfizer Inc., priority 2020, published 2023)

How the values were obtained:
Type in all cases: cell-based
IL-4 induced pSTAT6 = assay: IL-4-induced pSTAT6 in human keratinocytes; conditions: Keratinocyte, JAK1/JAK2, read-out: IL-4 induced pSTAT6, cellular potency IC50
Protocol: (§1) Human whole blood was collected from healthy donors via vein puncture into Vacutainer collection tubes containing sodium heparin in accordance with Pfizer protocols (Protocol No. GOHW RDP-01) approved by the Shulman Institutional Review Board. Blood was warmed to 37° C. priorto use. Human whole blood was aliquoted (90 μL/well) in 96-well, deep-well, V-bottom plates and treated with compounds (5 μL/well) at different concentrations up to 60 μM (0.2% DMSO final) at 37° C. for 60 minutes. This was followed by a challenge with IFNα (5000 U/mL), IFNγ (100 ng/mL), IL-6 (50 ng/mL), IL-10 (30 ng/mL), IL-12 (30 ng/mL), IL-15 (30 ng/mL), IL-21 (50 ng/mL), IL-23 (25 ng/mL), IL-27 (1000 ng/mL), EPO (2 U/mL), TSLP (50 ng/mL) or PBS and incubated for 15 minutes. Anti-cell surface antibodies were added 15 minutes prior to cytokine stimulation; anti-CD3-BV421 (0.5 μL/well) to IL-6-treated and TSLP-treated samples and anti-CD14-BV421 (0.5 μL/well) to IFNγ-treated samples. Samples were treated with warm 1×Lyse/Fix buffer (700 μL/well) to terminate activation and further incubated at 37° C. for 20 minutes to lyse red blood cells. Plates were centrifuged at 300×g for 5 minutes, supernatant was aspirated, and cells were washed with 800 μL/well of staining buffer (D-PBS containing 0.1% FBS and 0.01% sodium azide). Washed cell pellets were resuspended in 350 μL/well of prechilled 90% methanol and incubated at 4° C. for 30 minutes. After the removal of 90% methanol, cells were washed once with staining buffer. […]
(§2) After overnight incubation at 4° C., anti-pSTAT stained samples were transferred into 96-well polypropylene U-bottom plates and flow cytometric analysis was performed on a LSR Fortessa™ equipped with a HTS plate loader. […] Background fluorescence was defined using unstimulated cells and a gate was placed at the foot of the peak to include ˜0.5% gated population. […]

IL-13 induced pSTAT6 = assay: IL-13-induced pSTAT6 in human keratinocytes; conditions: Keratinocyte, JAK1/JAK2, read-out: IL-13 induced pSTAT6, cellular potency IC50
Protocol: as §1, §2

TSLP induced pSTAT5 = assay: TSLP-induced pSTAT5 in human whole blood (CD3+ cells); conditions: JAK1/JAK2, read-out: TSLP induced pSTAT5, cellular potency IC50
Protocol: as §1, §2

| Structure (SMILES) | IC50 (IL-4 induced pSTAT6) [nM] | IC50 (IL-13 induced pSTAT6) [nM] | IC50 (TSLP induced pSTAT5) [nM] |
| --- | --- | --- | --- |
| C[C@H](O)CS(=O)(=O)N[C@H]1C[C@@H](N(C)c2ncnc3[nH]ccc23)C1 (single isomer, unassigned) [IA (M2)] | 134 | 84.1 | 271 |
| CN(c1ncnc2[nH]ccc12)[C@H]1C[C@@H](NS(=O)(=O)CCCO)C1 [IB (M1), 3-Hydroxy-N-(cis-3-(methyl(7H-pyrrolo[2,3-d]pyrimidin-4-yl)amino)cyclobutyl)propane-1-sulfonamide] | 433 | 236 | 785 |
